Literature values as cited in patent US20080085243A1, “MOLECULAR MARKERS FOR D[…] RESPONSIVENESS” (SIGMA-ALDRICH COMPANY, priority 2006, published 2008).

System: late stage non-small cell lung cancer (NSCLC)

CC(=O)O[C@H]1C(=O)[C@@]2(C)[C@H]([C@H](OC(=O)c3ccccc3)[C@]3(O)C[C@H](OC(=O)[C@H](O)[C@@H](NC(=O)c4ccccc4)c4ccccc4)C(C)=C1C3(C)C)[C@]1(OC(C)=O)CO[C@@H]1C[C@@H]2O [paclitaxel]
patients who respond therapeutically: about 20%
